Data reported in patent US12358896B2, “LRRK2 inhibitors and methods of making and using thereof” (DENALI THERAPEUTICS INC., priority 2019, dated 2025).

What was measured:
LRRK2 G2019S enzyme = LRRK2 G2019S enzyme (Homo sapiens, UniProt Q5S007, G2019S); assay: LRRK2 G2019S TR-FRET biochemical assay (Biological Example 1); conditions: 134 μM ATP, 5 nM LRRK2, LRRKtide substrate
Method: • LRRK2 G2019S enzyme • Substrate (LRRKtide) • ATP • TR-FRET dilution buffer • pLRRKtide antibody • 384-well assay plate • DMSO Enzyme Reaction Conditions • 50 mM Tris pH 7.5, 10 mM MgCl2, 1 mM EGTA, 0.01% Brij-35, 2 mM DTT • 5 nM LRRK2 • 134 μM ATP • 60 minute reaction time • 23° C. reaction temperature • 10 μL total reaction volume Detection Reaction Conditions • 1×TR-FRET dilution buffer • 10 mM EDTA • 2 nM antibody • 23° C. reaction temperature • 10 μL total reaction volume
Compounds are prepared by initially diluting to 1 mM with DMSO. 35 μL of reference compound solution, 35 μL of test compound solution, and 35 μL HPE are successively added to the source plate (384-well assay plate, Labcyte). The plates are centrifuged at 2500 rpm for 1 minute and sealed in foil. POD is used to perform a 3.162 fold serial dilution and 100 nL of reference compound solution, test compound solution, HPE and ZPE are transferred to assay plates. The assay plate is centrifuged at 2500 rpm for 1 minute, and sealed with foil.
To perform the enzyme reaction, 5 μL of LRRKtide substrate and kinase mixture in assay buffer is added to all wells of the assay plate. The plate is centrifuged to concentrate the mixture at the bottom of the wells. The assay plate is incubated at 23° C. for 20 minutes. Following incubation, 5 μL of 2×ATP in assay buffer is added to each well, and plates are centrifuged to concentrate the mixture at the bottom of the wells. The plate is incubated at 23° C. for 60 minutes.
To perform the detection of the reaction, EDTA completely mixed in TR-FRET dilution buffer is added to antibody reagent. 10 μL of detection reagent is added to all wells of each well of the assay plate and the plate is centrifuged to concentrate the mixture at the bottom of the wells. The plate is then incubated at 23° C. for 60 minutes. Plates are read on Perkin Elmer Envision 2104 instrument in TR-FRET mode using a 340 nm excitation filter, 520 nm fluorescence emission filter, and 490 or 495 nm terbium emission filter.

[1] = Metabolic stability in human liver microsomes (Biological Example 2); assay type: in vitro ADME; conditions: hepatic clearance (CLhep) scaled from human liver microsomes, 1 μM, well-stirred model
Method: Metabolic stability of select compounds was evaluated in human liver microsomes (from Corning or XenoTech, LLC) using a 96-well plate assay format. Compounds were incubated at 37° C. at 1 μM final concentration in the microsomal matrix (0.5 mg/mL total protein) in the presence or absence of NADPH cofactor. An NADPH regenerating system, comprised of NADP, MgCl2, isocitric acid, and isocitrate dehydrogenase, was used in the assay. Enzymatic reactions were conducted for 0, 5, 10, 20, 30, or 60 min before termination by addition of acetonitrile containing tolbutamide and labetalol internal standards (100 ng/mL). After shaking for 10 min, plates were subjected to centrifugation (4000 rpm at 4° C.) for 20 min and supernatants mixed 1:3 with HPLC grade water. Samples were analyzed by LC-MS/MS using appropriate MRM transitions for each analyte and internal standard (IS). Analyte/IS peak area ratios were used to determine percent compound remaining at each time point. Intrinsic clearance (Clint; expressed as mL·min^−1·mg^−1) was calculated from the first order elimination constant (k, min^−1) of test article decay and the volume of the incubation. These values were scaled to intrinsic organ clearance (Clint) using human specific scaling factors (48.8 mg microsomal protein per g liver; 25.7 g liver per kg body weight). Organ Clint was subsequently converted to hepatic clearance, HLM, (CLhep, mL·min-1·kg-1) using the well-stirred model of hepatic elimination, where Qh is human hepatic blood flow (20.7 mL·min-1·kg-1).
CLhep is the projected human clearance in the liver based on the above in vitro assay. A lower value is indicative of less compound being removed by the liver.

MDR1 (P-glycoprotein) = target: T1, MDR1 (P-glycoprotein) (Homo sapiens, UniProt P08183); assay: MDR1-MDCK permeability / efflux (Biological Example 3); assay type: in vitro ADME; conditions: MDR1-MDCK cells, pH 7.4; for efflux ratio at 1 μM: dog
T1 construct: expressed in transfected cells; host or cells: MDR1-MDCK cells
T1 sequence (P08183 whole entry): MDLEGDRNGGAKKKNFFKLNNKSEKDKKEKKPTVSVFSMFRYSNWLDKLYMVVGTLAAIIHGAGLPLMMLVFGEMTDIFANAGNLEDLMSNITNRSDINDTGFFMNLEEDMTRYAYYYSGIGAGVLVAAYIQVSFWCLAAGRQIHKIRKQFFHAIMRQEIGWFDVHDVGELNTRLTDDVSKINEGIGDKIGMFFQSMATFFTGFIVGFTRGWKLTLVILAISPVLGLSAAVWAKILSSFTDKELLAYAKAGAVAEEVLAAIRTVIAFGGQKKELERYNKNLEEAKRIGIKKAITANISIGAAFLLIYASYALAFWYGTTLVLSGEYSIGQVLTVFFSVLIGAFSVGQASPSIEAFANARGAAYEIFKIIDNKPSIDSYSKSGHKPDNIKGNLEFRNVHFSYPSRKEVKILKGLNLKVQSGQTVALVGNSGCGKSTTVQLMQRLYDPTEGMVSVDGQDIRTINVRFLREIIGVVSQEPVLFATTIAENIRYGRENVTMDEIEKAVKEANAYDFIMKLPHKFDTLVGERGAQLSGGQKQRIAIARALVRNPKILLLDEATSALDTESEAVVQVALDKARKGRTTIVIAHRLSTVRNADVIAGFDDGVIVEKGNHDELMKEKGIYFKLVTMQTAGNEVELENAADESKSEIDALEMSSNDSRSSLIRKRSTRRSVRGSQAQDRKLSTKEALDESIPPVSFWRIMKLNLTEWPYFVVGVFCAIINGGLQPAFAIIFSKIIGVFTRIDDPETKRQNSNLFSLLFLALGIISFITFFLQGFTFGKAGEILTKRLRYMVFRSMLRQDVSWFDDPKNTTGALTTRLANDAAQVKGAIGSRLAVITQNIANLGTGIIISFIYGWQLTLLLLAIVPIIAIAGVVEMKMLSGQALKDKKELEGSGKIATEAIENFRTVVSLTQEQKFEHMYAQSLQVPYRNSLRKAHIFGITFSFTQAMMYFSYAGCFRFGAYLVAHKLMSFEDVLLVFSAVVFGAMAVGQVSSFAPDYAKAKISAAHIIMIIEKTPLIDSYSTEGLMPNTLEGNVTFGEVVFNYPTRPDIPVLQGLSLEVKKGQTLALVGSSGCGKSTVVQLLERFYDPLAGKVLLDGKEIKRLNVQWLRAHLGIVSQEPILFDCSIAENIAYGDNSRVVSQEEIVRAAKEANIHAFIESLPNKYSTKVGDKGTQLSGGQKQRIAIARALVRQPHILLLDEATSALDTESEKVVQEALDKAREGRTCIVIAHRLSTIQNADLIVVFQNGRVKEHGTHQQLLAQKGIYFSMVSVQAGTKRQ
Method: The blood brain barrier (BBB) separates circulating blood from the extracellular fluid of the central nervous system (CNS). The passive membrane permeability (Papp) and MDR1 (P-glycoprotein) substrate efflux potential are determined using the MDR1-MDCK cell line as an in vitro model of the effective permeability of a compound through the BBB. A bidirectional assay was conducted in pre-plated MDR1-MDCK cells using a 12 or 96-well plate in the absence or presence of MDR1 inhibitor (GF120918 or Valspodar). Assays were run in duplicate in transport buffer (HBSS, pH 7.4) for 90 or 120 min (minutes) at 37° C., using a test article concentration of 1 μM. Monolayer integrity was confirmed using Lucifer yellow, and appropriate positive controls for passive permeability and MDR1 transport were included in each experiment. Following incubation, samples from donor and receiver compartments are removed and quenched with acetonitrile containing an appropriate internal standard (IS). Protein was precipitated by centrifugation for 10 min at 3220 g, and supernatants diluted in ultra-pure water (if necessary) prior to analysis by LC-MS/MS using appropriate MRM transitions for analytes and IS. Papp (apparent permeability expressed in cm/sec [centimeter/second]) values were calculated according to the following equation:
[formula] where VR is the solution volume in the receiver chamber (apical or basolateral side), Area is the surface area for the insert membrane), Time is incubation time expressed in seconds, CR is the peak area ratio (analyte/IS) in the receiver chamber, CA is the average of the initial and final concentrations in the donor chamber, and Co is the initial peak area ratio in the donor chamber. Papp was determined in both the apical to basolateral (A→B) and basolateral to apical (B→A) directions.
Monolayer efflux ratios (ER) were derived using the following equation: […]
Compounds with an MDR1-MDCK efflux ratio above 20 are not expected to cross the blood brain barrier.

Chain of LRRK2 G2019S enzyme (Q5S007 whole entry G2019S): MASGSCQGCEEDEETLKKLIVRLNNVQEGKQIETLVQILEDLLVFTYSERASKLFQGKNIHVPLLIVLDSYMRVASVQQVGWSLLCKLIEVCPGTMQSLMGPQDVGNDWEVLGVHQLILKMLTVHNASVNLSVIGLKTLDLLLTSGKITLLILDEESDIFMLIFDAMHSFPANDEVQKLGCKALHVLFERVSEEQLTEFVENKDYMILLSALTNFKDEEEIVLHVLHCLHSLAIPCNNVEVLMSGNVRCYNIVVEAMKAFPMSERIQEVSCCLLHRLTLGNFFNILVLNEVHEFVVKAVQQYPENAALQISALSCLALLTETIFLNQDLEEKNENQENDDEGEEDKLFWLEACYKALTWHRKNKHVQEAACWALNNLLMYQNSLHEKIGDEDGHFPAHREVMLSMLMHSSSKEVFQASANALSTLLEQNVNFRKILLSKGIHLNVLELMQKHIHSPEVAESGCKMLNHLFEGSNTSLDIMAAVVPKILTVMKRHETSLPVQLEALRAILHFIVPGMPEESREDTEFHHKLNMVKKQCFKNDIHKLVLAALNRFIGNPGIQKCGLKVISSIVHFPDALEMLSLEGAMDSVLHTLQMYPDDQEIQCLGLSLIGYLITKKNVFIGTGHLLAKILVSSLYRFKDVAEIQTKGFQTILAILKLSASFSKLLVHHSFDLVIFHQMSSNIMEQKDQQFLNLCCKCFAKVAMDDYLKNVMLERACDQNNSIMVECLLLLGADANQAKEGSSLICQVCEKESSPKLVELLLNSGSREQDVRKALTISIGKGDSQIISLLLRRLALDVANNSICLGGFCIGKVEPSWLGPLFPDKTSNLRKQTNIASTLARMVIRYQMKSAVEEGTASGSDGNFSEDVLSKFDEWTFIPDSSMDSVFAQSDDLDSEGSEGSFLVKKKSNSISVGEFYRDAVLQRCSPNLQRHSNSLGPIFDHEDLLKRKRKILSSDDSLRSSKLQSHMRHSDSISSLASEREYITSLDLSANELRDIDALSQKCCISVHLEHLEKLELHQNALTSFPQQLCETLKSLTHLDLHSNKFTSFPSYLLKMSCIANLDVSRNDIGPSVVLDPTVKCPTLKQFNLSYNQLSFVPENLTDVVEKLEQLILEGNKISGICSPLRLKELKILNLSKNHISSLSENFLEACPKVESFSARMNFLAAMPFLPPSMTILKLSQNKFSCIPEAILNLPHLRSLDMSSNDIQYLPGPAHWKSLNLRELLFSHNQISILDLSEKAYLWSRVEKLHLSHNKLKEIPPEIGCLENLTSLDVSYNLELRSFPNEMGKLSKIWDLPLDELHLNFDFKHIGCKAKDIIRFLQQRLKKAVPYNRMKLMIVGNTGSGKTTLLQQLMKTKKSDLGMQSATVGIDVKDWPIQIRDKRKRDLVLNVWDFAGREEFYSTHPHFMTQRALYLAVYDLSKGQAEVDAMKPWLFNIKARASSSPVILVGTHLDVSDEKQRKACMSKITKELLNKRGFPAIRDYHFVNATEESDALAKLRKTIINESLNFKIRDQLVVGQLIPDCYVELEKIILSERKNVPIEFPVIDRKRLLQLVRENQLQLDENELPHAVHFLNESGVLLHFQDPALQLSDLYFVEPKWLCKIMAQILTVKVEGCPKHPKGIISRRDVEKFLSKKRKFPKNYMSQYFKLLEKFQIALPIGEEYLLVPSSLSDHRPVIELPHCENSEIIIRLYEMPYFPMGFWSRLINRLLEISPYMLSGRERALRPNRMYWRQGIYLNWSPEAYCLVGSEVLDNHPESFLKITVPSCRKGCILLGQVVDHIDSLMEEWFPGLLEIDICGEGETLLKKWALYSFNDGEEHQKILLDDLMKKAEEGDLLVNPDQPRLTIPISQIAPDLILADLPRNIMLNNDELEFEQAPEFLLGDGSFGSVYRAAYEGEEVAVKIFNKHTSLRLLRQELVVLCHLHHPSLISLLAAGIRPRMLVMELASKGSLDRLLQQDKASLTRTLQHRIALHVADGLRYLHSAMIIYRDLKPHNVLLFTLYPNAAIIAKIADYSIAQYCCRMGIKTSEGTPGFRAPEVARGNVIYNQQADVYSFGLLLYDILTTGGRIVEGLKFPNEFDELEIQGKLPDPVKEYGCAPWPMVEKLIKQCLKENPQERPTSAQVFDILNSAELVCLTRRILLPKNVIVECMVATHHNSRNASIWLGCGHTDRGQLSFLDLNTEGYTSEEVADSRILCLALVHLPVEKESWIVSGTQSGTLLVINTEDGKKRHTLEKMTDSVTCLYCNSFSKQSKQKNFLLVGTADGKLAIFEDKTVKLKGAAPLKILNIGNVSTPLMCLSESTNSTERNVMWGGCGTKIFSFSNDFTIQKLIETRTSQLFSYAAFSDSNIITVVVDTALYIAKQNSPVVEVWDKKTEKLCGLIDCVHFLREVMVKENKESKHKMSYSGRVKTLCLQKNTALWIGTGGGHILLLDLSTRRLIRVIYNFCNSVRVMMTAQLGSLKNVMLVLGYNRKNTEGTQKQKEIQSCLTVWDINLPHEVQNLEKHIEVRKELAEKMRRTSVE

Row | IC50 (LRRK2 G2019S enzyme) [nM] | HLM Avg [1] [L/h/kg] | efflux ratio at 1 μM (MDR1 (P-glycoprotein)) | MDCK-MDR1 Efflux Avg (MDR1 (P-glycoprotein); efflux ratio, 1 μM) | Compound
1 | 1.47 | 0.216 | 110 | 110 | CCNc1nc(Nc2cn([C@H]3C[C@H]3C(N)=O)nc2C2CC2)ncc1C(F)(F)F (single isomer, unassigned) [Example 7, (1,2-cis)-2-(3-cyclopropyl-4-((4-(ethylamino)-5-(trifluoromethyl)pyrimidin-2-yl)amino)-1H-pyrazol-1-yl)cyclopropanecarboxamide]
2 | 1.41 | 0.156 | 144 | – | CCNc1nc(Nc2cc([C@H]3C[C@H]3C(N)=O)nn2C2CC2)ncc1C(F)(F)F [Comparative Example A, reference compound]
